Measurements taken from patent US20100292288A1, “CRYSTALLINE FORMS OF (R)-1-{2-[4`- (3-METHOXY-PROPANE-1- SULFONYL)-BIPHENYL-4-YL]-ETHYL}-2-METHYL-PYRROLIDINE, AND COMPOSITIONS, AND METHODS RELATED THERETO” (ARENA PHARMACEUTICALS, INC., priority 2007, published 2010).

Assays:
[1] = Dynamic vapor sorption (DVS) analysis, hygroscopicity; assay type: physicochemical; conditions: crystalline form; VTI-SGA100
Experimental: Dynamic vapor sorption analysis was conducted using a VTI-SGA100. Samples were placed in an open pan inside the instrument and allowed to dry at a relative humidity (RH) of 0%. The sample was considered sufficiently dry when a change in mass over time (dm/dt) was less than 0.04%. The subsequent experiment which, started immediately after drying, was as follows: RH increased in 5% RH steps from 0-95% followed by decreasing RH steps from 95-5%. A change in dm/dt of 0.002% was used to determine when equilibration at any given step was achieved prior to the instrument moving to the next relative humidity step.
Hygroscopicity was measured using a dynamic moisture-sorption analyzer, VTI Corporation, SGA-100. The sample was placed as-is in a tared sample holder on the VTI balance. A drying step was run at 40° C. and 1% RH for 20 minutes. The isotherm conditions are 25° C. with steps of 20% RH from 10% RH up to 90% RH and back to 10% RH. Weight is checked every 5 minutes. Consecutive % weight change of <0.01% or 2 hours, whichever occurs first, is required before continuing to the next step.

histamine H3-receptor = histamine H3-receptor (Rattus norvegicus, UniProt Q9QYN8); test: [3H] N-alpha-methyl-histamine competitive histamine H3-receptor binding assay; conditions: membranes from whole rat brain cortex; [3H]-N-α-methyl-histamine 1 nM; 30 min at room temperature
Sequence of histamine H3-receptor (Q9QYN8 1-397 isoform Q9QYN8-3): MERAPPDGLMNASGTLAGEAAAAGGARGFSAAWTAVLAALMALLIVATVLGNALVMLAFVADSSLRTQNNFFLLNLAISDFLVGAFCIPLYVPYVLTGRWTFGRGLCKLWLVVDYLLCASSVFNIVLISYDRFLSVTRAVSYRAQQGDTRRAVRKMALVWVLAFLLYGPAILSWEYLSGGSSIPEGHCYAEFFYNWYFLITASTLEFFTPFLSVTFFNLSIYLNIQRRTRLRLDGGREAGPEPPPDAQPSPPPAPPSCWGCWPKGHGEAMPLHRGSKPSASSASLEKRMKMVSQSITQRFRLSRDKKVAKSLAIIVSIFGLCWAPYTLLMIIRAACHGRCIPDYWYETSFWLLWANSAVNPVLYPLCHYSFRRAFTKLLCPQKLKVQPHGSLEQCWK
Experimental: The histamine receptor binding assay was conducted using standard laboratory procedures as described below. A crude membrane fraction was prepared from whole rat brain cortex using a polytron to homogenize the tissue followed by differential centrifugation in a HEPES-based buffer containing protease inhibitors. Membranes where frozen at −80° C. until needed. Frozen membranes were thawed and resuspended in ice-cold assay buffer consisting of 50 mM TRIS containing 5 mM EDTA (pH=7.4). 50 micrograms (μg) of membrane protein was added to each well of a 96-well assay plate along with test compound and [^3H]-N-α-methyl-histamine (1 nanomolar (nM) final assay concentration). Imetit was used as an assay positive control at varying concentrations. The plate was incubated for 30 min at room temperature. The assay was terminated by rapid filtration through a 96-well glass fiber filtration plate (GF/C) using a cell harvester (Perkin-Elmer). Captured membranes were washed three times with cold assay buffer and plates were dried at 50° C. 35 microliters (μL) of scintillation cocktail was added to each well and membrane-bound radioactivity was recorded using a TopCount 96-well plate scintillation counter (Perkin-Elmer).

RAMH-induced drinking = test: Blockade of RAMH-induced drinking assay; assay type: in vivo, rat; conditions: male Sprague Dawley rats; 0.3 mg/kg PO; RAMH 3 mg/kg SC 30 min later; water intake over 20 min
Experimental: When administered to rodents, H3 agonists such as R-α-methyl-histamine (RAMH) induce a drinking response which is sensitive to reversal with an H3 antagonist. Blockade of RAMH-induced drinking can therefore be utilised as an in vivo assay for functional H3 antagonist activity. In this assay, male Sprague Dawley rats (250-350 g) were housed three per cage and maintained under a reverse 12 h light cycle (lights off at 1130 h). At 1030 h on the day of test, rats were individually housed in new cages and food was removed. 120 min later, rats were administered test article (vehicle or H3 antagonist, 0.3 mg/kg PO). 30 min later, water was removed, and RAMH (vehicle or RAMH 3 mg/kg salt SC) was administered. 10 min after administration of RAMH, weighed water bottles were placed in the cages, and drinking was allowed for 20 min. Water consumption was determined for each animal by weighing each bottle to the nearest 0.1 g. Data is expressed as percentage reduction in water intake according to the following formula: [1−[(ANTAGONIST/RAMH)−(VEHICLE/RAMH)/(VEHICLE/RAMH)−(VEHICLE/VEHICLE)]]*100

[2] = target: T1, human histamine H3-receptor (Homo sapiens, UniProt Q9Y5N1); test: Human histamine H3-receptor binding assay, MDS Pharma Services (Taiwan); conditions: Catalogue No. 239810
T1 construct: purchased MDS Pharma Services (Taiwan) 239810
T1 sequence (Q9Y5N1 whole entry): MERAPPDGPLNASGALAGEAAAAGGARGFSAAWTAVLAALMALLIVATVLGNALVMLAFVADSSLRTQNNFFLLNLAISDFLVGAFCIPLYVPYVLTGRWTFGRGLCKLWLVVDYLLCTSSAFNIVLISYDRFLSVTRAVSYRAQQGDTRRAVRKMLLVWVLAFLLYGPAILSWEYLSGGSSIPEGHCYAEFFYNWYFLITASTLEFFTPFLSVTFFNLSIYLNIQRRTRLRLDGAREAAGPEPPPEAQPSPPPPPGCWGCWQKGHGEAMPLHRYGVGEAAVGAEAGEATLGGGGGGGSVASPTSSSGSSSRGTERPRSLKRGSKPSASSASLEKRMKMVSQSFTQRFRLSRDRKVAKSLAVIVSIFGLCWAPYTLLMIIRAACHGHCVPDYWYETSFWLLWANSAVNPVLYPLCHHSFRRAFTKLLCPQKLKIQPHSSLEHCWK
Experimental: Compounds were tested for their ability to bind to the human histamine H3-receptor using the MDS Pharma Services (Taiwan) assay, Catalogue No. 239810.

hygroscopicity from DVS data [1] | Ki (histamine H3-receptor) [nM] | Ki [2] [nM] | SMILES | % inhibition of RAMH-induced drinking (RAMH-induced drinking) [%]
non-hygroscopic | – | – | COCCCS(=O)(=O)c1ccc(-c2ccc(CCN3CCC[C@H]3C)cc2)cc1.O=C(O)/C=C\C(=O)O [(R)-1-{2-[4′-(3-methoxy-propane-1-sulfonyl)-biphenyl-4-yl]-ethyl}-2-methyl-pyrrolidine maleate] | –
non-hygroscopic | 0.75 | – | COCCCS(=O)(=O)c1ccc(-c2ccc(CCN3CCC[C@H]3C)cc2)cc1.O=C(O)CC(O)(CC(=O)O)C(=O)O.O=C(O)CC(O)(CC(=O)O)C(=O)O [Cmpd (I) di-citrate, (R)-1-{2-[4′-(3-methoxy-propane-1-sulfonyl)-biphenyl-4-yl]-ethyl}-2-methyl-pyrrolidine di-citrate] | 104 ± 14
– | – | 5.37 | COCCCS(=O)(=O)c1ccc(-c2ccc(CCN3CCC[C@H]3C)cc2)cc1 [Cmpd (I), (R)-1-{2-[4′-(3-methoxy-propane-1-sulfonyl)-biphenyl-4-yl]-ethyl}-2-methyl-pyrrolidine] | –
